Test results from patent publication US20100267928A1, “ACTIVATABLE DIAGNOSTIC AND THERAPEUTIC COMPOUND” (priority 2007, published 2010).
Primed or numbered codes have the meaning given here. Where no end group is shown, it is not given here. The star is where a group is joined. FITC = O=C1OC2(c3ccc(O)cc3Oc3cc(O)ccc32)c2ccc(NC(=S)*)cc21; DOTA = O=C(O)CN1CCN(CC(=O)O)CCN(CC(=O)*)CCN(CC(=O)O)CC1; FITC′ = fluorescent dye, fluorescein isothiocyanate

How the values were obtained:
MMP-2 = molecular target: T1, MMP-2 (Homo sapiens, UniProt P08253); experiment: Cleavage test with MMP-2, cleavage products examined by HPLC; format: biochemical; conditions: for cleavage of the compound by MMP-2 (HPLC): already active MMP-2 or proform of MMP-2 activated by APMA, 2 hours in HEPES buffer; for cleavage of the compound by MMP-2 in presence of the inhibitor (HPLC): with MMP-2 inhibitor I
T1 construct: purchased Calbiochem
T1 sequence (P08253 110-660): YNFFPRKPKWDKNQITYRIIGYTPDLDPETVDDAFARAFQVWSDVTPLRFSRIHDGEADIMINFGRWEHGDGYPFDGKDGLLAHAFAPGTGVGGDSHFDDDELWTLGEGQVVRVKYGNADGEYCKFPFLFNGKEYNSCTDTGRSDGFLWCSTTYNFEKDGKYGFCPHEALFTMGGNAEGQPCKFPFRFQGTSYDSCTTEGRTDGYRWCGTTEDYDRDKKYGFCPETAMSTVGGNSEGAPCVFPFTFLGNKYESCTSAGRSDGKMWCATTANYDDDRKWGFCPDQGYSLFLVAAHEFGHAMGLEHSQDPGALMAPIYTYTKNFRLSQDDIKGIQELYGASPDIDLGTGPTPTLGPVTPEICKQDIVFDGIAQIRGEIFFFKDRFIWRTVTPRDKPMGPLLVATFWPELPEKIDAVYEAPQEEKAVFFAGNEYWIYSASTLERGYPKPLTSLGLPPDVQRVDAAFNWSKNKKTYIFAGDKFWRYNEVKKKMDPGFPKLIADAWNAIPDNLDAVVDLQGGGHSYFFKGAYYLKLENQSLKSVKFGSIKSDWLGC
Method: The incubation in HEPES buffer with active MMP-2 was made for 2 hours.
[…]. For this 1% APMA stock solution (100 mM in DMSO) was added to the solution containing the MMP-2 proenzyme and the compounds (final APMA concentration: 1 mM, with 1% DMSO).
In the following also an incubation of 2 hours was performed. In addition the tests were made with the MMP-2 inhibitor I (Calbiochem). All six compounds were, as a control, also incubated into HEPES buffer without MMP-2 for two hours.

LN18 glioma cells = experiment: FACS analysis of fluorescence-stained cells; format: cell-based, human; conditions: for fluorescence after cleavage by MMP-2 in comparison to the components 2 and 2A: depending on the concentration, FIG. 5; for strongly stained cells in FACS after cleavage by active MMP-2: active versus inactive MMP-2 in culture medium
Method: (§1) The FACS analysis was performed on a Becton-Dickinson FACSCalibur. [[…] of the cell suspension (1×10^6 cells+[…] FACS buffer (DPBS buffer with 1% paraformaldehyde)]. Approximately 25.000 to 35.000 cells were measured per sample [fluorescence excitation: argon-ion laser (480 nm), fluorescence detection: 540 to 565 nm band-path filter]. The tests were repeated two times.

[1] = system: LN18 and U373 glioma cells; experiment: Confocal laser scanning microscopy (CLSM) and FACS, staining of cell nuclei; format: cell-based, human; conditions: 130 μM; for staining of the cell nuclei, MMP-2 inactive: APMA-containing medium, MMP-2 inactive/inhibited; for staining of the cell nuclei, MMP-2 active: APMA-containing medium without inhibitor
Method: as §1

[2] = system: LN18 and U373 glioma cells; conditions: for apoptosis (binding of Alexa annexin to phosphatidyl serine; morphologic alterations), MMP-2 active / signs of cell death, MMP-2 inactive: 130 μM; for apoptosis (binding of Alexa annexin to phosphatidyl serine; morphologic alterations), MMP-2 active: APMA-containing medium without inhibitor; for signs of cell death, MMP-2 inactive: data not shown
Method: Human malignant glioma cells (U373 and LN18) were seated into 25 cm^2 culture flasks which contained 3 ml RPMI medium. This was left as it is for one day so that enough matrix metalloprotenases (MMP-2) could accumulate.
In a second test the same compounds were again dissolved in the media of 12 flasks (130 μM), however now with MMP-2 inhibitor I (Calbiochem).
As a control four small flasks were used wherein both cell lines were incubated in a one day old medium with and also without APMA.
For the confocal laser scanning microscopy an inverted LSM510 laser scanning microscope (Karl Zeiss, Jena, Deutschland) (Objectives: LD Achroplan 40×0.6, Plan Neofluar 20×0.50, 40×0.75) was used [fluorescence excitation at 488 nm (argon-ion laser) and […] (helium-neon laser)]. Superimposed images of FITC- and alexa-stained cells were produced. All measurements were performed on living, non-fixed cells for three times.

[3] = system: U373 and LN18 glioma cells; experiment: Magnetic resonance relaxometry on glioma cell centrifugates; format: cell-based, human; conditions: for shortening of the T1 time, inhibitor-free medium: without MMP-2 inhibitor
Method: Human U373 and LN18 glioma cells were grown in 25 cm^2 culture flasks (70% confluence). Accutase™ (PAA laboratories, Pasching, Austria) was added to strip off the cells from the bottom of the culture flasks.
In a first try the cells were collected and subsequently distributed on 16 Eppendorf-vials (6×10^6 cells per vial). The cells in the first four vials were used as a control (only RPMI medium with and also without APMA, two cell lines). […] In the following it was washed for three times with PBS and centrifuged with 800 rpm (rounds per minute) for 5 minutes.
In another test adherent U373 and LN18 glioma cells were incubated with the compounds 2A, 4A and […], and were stripped off in the following and collected in Eppendorf vials for the MRT. The MRT analysis of the Eppendorf vials with the cell centrifugates were performed in a 3 Tesla full body MRT apparatus (Trio, Siemens Magnetom Sonata, circular polarised knee coil).
The following spin echo sequence was used to obtain sagittal T1-weighted MRT images.
[…] TE (echo time): 7.4 ms, flip angle 90°, averages: 1, concatenations: 2, measurements: 2, number of slices: 19, distance factor: 30%, slice thickness: 3 mm, field of view read: 180 mm, field of view phase: 100%, base resolution: 256, phase resolution: 100%, voxel size: 0.7×0.7×3.0 mm, scan time: 1:48 min.
By means of multiple spin echo measurements (TR: 20-8000 ms, 50 different TR values) different signal intensities were measured through which the T1 relaxation time could be determined.
TR: 20-8000 ms (50 different TR values), TE: 6.4 ms, flip angle 90°, averages: 1, measurements; 1, number of slices: 1, slice thickness: 1 mm, field of view read: 120 mm, field of view phase: 87.5, base resolution 128, phase resolution; 100% voxel size: 0.9×0.9×1 mm.
For the analysis and calculations a Matlab programme (Math Works, Natick, Mass., USA) was used. The T1 values were determined via a two-parameter fit. All signal curves were examined and rated as being mono-exponential. All tests were performed three times.

Compound	cleavage of the compound by MMP-2 (HPLC) (MMP-2; listed as 5A)	cleavage of the compound by MMP-2 (HPLC) (MMP-2; listed as V5a)	cleavage of the compound by MMP-2 in presence of the inhibitor (HPLC) (MMP-2)	fluorescence after cleavage by MMP-2 in comparison to the components 2 and 2A (LN18 glioma cells)	staining of the cell nuclei, MMP-2 inactive [1]	apoptosis (binding of Alexa annexin to phosphatidyl serine; morphologic alterations), MMP-2 active [2]	shortening of the T1 time in comparison to component 2A, inhibitor-free medium ([3]; depending on the concentration)	shortening of the T1 time, inhibitor-free medium [3]	cleavage of the compound by MMP-2 (HPLC) (MMP-2)	strongly stained cells in FACS after cleavage by active MMP-2 (LN18 glioma cells; LN18 glioma cells)	signs of cell death, MMP-2 inactive [2]	cleavage of the compound by MMP-2 (HPLC) (MMP-2; listed as 5)	staining of the cell nuclei, MMP-2 active [1]	staining of the cell nuclei, MMP-2 inactive ([1]; listed as 5)	displacement of the peak of the FACS histogram to the right, V4 versus V2 (LN18 glioma cells; LN18 glioma cells, after cleavage by active MMP-2)	damage of the cell vitality by additive in the medium ([2]; additive alone in RPMI medium, LN18 and U373 glioma cells)	shortening of the T1 time in comparison to the native control, inhibitor-containing medium ([3]; 26 and 130 μM, with MMP-2 inhibitor)	signal intensity at TR: 400 ms, active MMP-2 versus inactive MMP-2 ([3]; LN18 glioma cell centrifugates, 26 and 130 μm, washed and centrifuged three times)
K-(GdDOTA)-GG-K(FITC)-RRRR-G-PLGLA-G-RRRR-K(FITC)-GG-K(GdDOTA) (K(DOTA)GGK(FITC′)RRRRGPLGLAGRRRRK(FITC′)GGK(DOTA)-NH2; also: DOTA groups complexed with Gd (GdDOTA)) [V5A]	cleaved	split into two new peaks	prevented	stronger fluorescence	few stained cell nuclei	apoptotic	stronger shortening of the T1 time	more distinct shortening of the T1 time										
PKKKRKV-K(FITC)-GG-K(DOTA)-PLGVR-K(DOTA) (PKKKRKVKGGKPLGVRK) [V2]			prevented		few stained cell nuclei				cleaved	considerable increase of the strongly stained cells	did not show any signs of cell death							
K(DOTA)-GG-K(FITC)-RRRR-G-PLGLA-G-RRRR-K(FITC)-GG-K(DOTA) (K(DOTA)GGK(FITC)RRRRGPLGLAGRRRRK(FITC)GGK(DOTA)) [V5]			prevented	stronger fluorescence	the cells remain unstained	apoptotic			split into two new peaks		did not show any signs of cell death	cleaved	accumulates in the cell nuclei	few stained cell nuclei				
K(DOTA)-G-PLGLA-GGPKKKRKVRRRR-K(FITC)-GG-K(DOTA) (K(DOTA)GPLGLAGGPKKKRKVRRRRK(FITC)GGK(DOTA)) [V4]			prevented	stronger fluorescence	few stained cell nuclei	apoptotic			cleaved	considerable increase of the strongly stained cells	did not show any signs of cell death		staining of the cell nuclei can only be observed after the cleavage		more pronounced			
CCCCCCCC/C=C\CCCCCCCC(=O)NO [MMP-2 inhibitor I, reference compound]																did not result in a damage of the cell vitality		
PKKKRKV-K(FITC)-GG-K(GdDOTA)-PLGVR-K(GdDOTA) (PKKKRKVKGGKPLGVRK; not fully specified) [V2A]			prevented		few stained cell nuclei			more distinct shortening of the T1 time	cleaved		did not show any signs of cell death						minor shortening of the T1 time	considerably higher signal intensity
